The data set has as its system microbiota present in the faecal samples. In words: Oligosaccharide distribution (HPAEC-PAD peak areas) during faecal fermentation. From the text: HPAEC-PAD (high performance anion exchange chromatography) equipped with a PA-1 column was used for separation of mono- and oligosaccharides of the different samples. Efforts were made to achieve a separation quality described in van Leeuwen et al., Carbohydrate Research 2016, 425, 48-58. […] The samples as used for GPC were 100-fold diluted with DMSO before injection.
The distribution of oligosaccharides in the mixtures was also monitored over this time period using the method described above in relation to Table 2.

Consider `O=C[C@H](O)[C@@H](O)[C@@H](O)[C@H](O)CO` [Galactose], for which the Peak areas (in Comp. Ex. 1, 0 h) stood at 0.5; the Peak areas (in Comp. Ex. 1, 6 h, Donor A) worked out at 2.4; the Peak areas (in Comp. Ex. 1, 6 h, Donor B) amounted to 45.1; the Peak areas (in Comp. Ex. 1, 6 h, Donor C) amounted to 0.7; the Peak areas (in Comp. Ex. 1, 24 h, Donor A) worked out at 0.0; the Peak areas (in Comp. Ex. 1, 24 h, Donor B) came out at 0.1. Besides, the Peak areas worked out at 0.0 (in Comp. Ex. 1, 24 h, Donor C); 0.0 (in Comp. Ex. 1, 48 h, Donor A); 0.0 (in Comp. Ex. 1, 48 h, Donor B); 0.0 (in Comp. Ex. 1, 48 h, Donor C); 1.3 (in Example 2, 0 h); 2.1 (in Example 2, 6 h, Donor A). Further, the Peak areas runs as follows: (in Example 2, 6 h, Donor B) 47.3; (in Example 2, 6 h, Donor C) 0.8; (in Example 2, 24 h, Donor A) 0.0; (in Example 2, 24 h, Donor B) 0.1; (in Example 2, 24 h, Donor C) 0.0; (in Example 2, 48 h, Donor A) 0.0. The Peak areas was 0.0 (in Example 2, 48 h, Donor B) and 0.0 (in Example 2, 48 h, Donor C).

With `O=C[C@H](O)[C@@H](O)[C@H](O)[C@H](O)CO` [Glucose], the Peak areas by setting is: (in Comp. Ex. 1, 0 h) 19.5; (in Comp. Ex. 1, 6 h, Donor A) 2.9; (in Comp. Ex. 1, 6 h, Donor B) 34.1; (in Comp. Ex. 1, 6 h, Donor C) 0.2; (in Comp. Ex. 1, 24 h, Donor A) 0.0; (in Comp. Ex. 1, 24 h, Donor B) 0.1. The Peak areas reads like this: (in Comp. Ex. 1, 24 h, Donor C) 0.0; (in Comp. Ex. 1, 48 h, Donor A) 0.0; (in Comp. Ex. 1, 48 h, Donor B) 0.0; (in Comp. Ex. 1, 48 h, Donor C) 0.0; (in Example 2, 0 h) 17.5; (in Example 2, 6 h, Donor A) 2.6. In addition, the Peak areas (in Example 2, 6 h, Donor B) was determined as 26.9; the Peak areas (in Example 2, 6 h, Donor C) was determined as 0.3; the Peak areas (in Example 2, 24 h, Donor A) is on record as 0.0; the Peak areas (in Example 2, 24 h, Donor B) is recorded as 0.0; the Peak areas (in Example 2, 24 h, Donor C) was 0.0; the Peak areas (in Example 2, 48 h, Donor A) is on record as 0.0. Also, the Peak areas by setting is: (in Example 2, 48 h, Donor B) 0.0; (in Example 2, 48 h, Donor C) 0.0.

Regarding `OC[C@H]1O[C@@H](O[C@H]2[C@H](O)[C@@H](O)C(O)O[C@@H]2CO)[C@H](O)[C@@H](O)[C@H]1O` (stereo partly drawn) [Lactose], the Peak areas (in Comp. Ex. 1, 0 h) was determined as 48.4; the Peak areas (in Comp. Ex. 1, 6 h, Donor A) is listed as 0.7; the Peak areas (in Comp. Ex. 1, 6 h, Donor B) was 1.9; the Peak areas (in Comp. Ex. 1, 6 h, Donor C) worked out at 0.4; the Peak areas (in Comp. Ex. 1, 24 h, Donor A) is 0.4; the Peak areas (in Comp. Ex. 1, 24 h, Donor B) stood at 0.5. Also, the Peak areas by setting is: (in Comp. Ex. 1, 24 h, Donor C) 0.4; (in Comp. Ex. 1, 48 h, Donor A) 0.3; (in Comp. Ex. 1, 48 h, Donor B) 0.5; (in Comp. Ex. 1, 48 h, Donor C) 0.3; (in Example 2, 0 h) 30.9; (in Example 2, 6 h, Donor A) 0.3. The Peak areas by setting is: (in Example 2, 6 h, Donor B) 5.3; (in Example 2, 6 h, Donor C) 0.6; (in Example 2, 24 h, Donor A) 0.3; (in Example 2, 24 h, Donor B) 0.4; (in Example 2, 24 h, Donor C) 0.4; (in Example 2, 48 h, Donor A) 0.3. In addition, the Peak areas is, setting by setting: (in Example 2, 48 h, Donor B) 0.5; (in Example 2, 48 h, Donor C) 0.3.

The values above are taken from patent publication US20260014179A1, “OLIGOSACCHARIDE COMPOSITION FOR USE IN THE REDUCTION OF THE LEVEL OF BRANCHED SHORT CHAIN FATTY ACIDS” (priority 2022, published 2026).
